Legend:
human orexin-2 receptor = human orexin-2 receptor (Homo sapiens (Human), UniProt O43614); test: FLIPR Ca2+ flux assay, orexin-2 receptor antagonism; type: cell-based; conditions: CHO cells; agonist 70 pM Ala-6,12 human orexin-A; read-out: hOX2R FLIPR IC50
Protocol: In a typical experiment the OX1 and OX2 receptor antagonistic activity of the compounds of the present invention was determined in accordance with the following experimental method. For intracellular calcium measurements, Chinese hamster ovary (CHO) cells expressing the rat orexin-1 receptor or the human orexin-2 receptor, are grown in Iscove's modified DMEM containing 2 mM L-glutamine, […], 1% hypoxanthine-thymidine supplement, 100 U/ml penicillin, 100 μg/ml streptomycin and 10% heat-inactivated fetal calf serum (FCS). The cells are seeded at 20,000 cells/well into Becton-Dickinson black 384-well clear bottom sterile plates coated with poly-D-lysine. All reagents were from GIBCO-Invitrogen Corp. The seeded plates are incubated overnight at 37° C. and 5% CO2. Ala-6,12 human orexin-A as the agonist is prepared as a 1 mM stock solution in 1% bovine serum albumin (BSA) and diluted in assay buffer (HBSS containing 20 mM HEPES, 0.1% BSA and 2.5 mM probenecid, pH7.4) for use in the assay at a final concentration of 70 pM. Test compounds are prepared as 10 mM stock solution in DMSO, then diluted in 384-well plates, first in DMSO, then assay buffer. On the day of the assay, cells are washed 3 times with 100 μl assay buffer and then incubated for 60 min (37° C., 5% CO2) in 60 μl assay buffer containing 1 μM Fluo-4AM ester, 0.02% pluronic acid, and 1% BSA. The dye loading solution is then aspirated and cells are washed 3 times with 100 μl assay buffer. 30 μl of that same buffer is left in each well. Within the Fluorescent Imaging Plate Reader (FLIPR, Molecular Devices), test compounds are added to the plate in a volume of 25 μl, incubated for 5 min and finally 25 μl of agonist is added. Fluorescence is measured for each well at 1 second intervals for 5 minutes and the height of each fluorescence peak is compared to the height of the fluorescence peak induced by 70 pM Ala-6,12 orexin-A with buffer in place of antagonist. […] The intrinsic orexin receptor antagonist activity of a compound which may be used in the present invention may be determined by these assays.

hOX1R = hOX1R (Homo sapiens, UniProt O43613); test: FLIPR Ca2+ flux assay, orexin-1 receptor antagonism; type: cell-based; conditions: CHO cells; agonist 70 pM Ala-6,12 human orexin-A

human orexin-2 receptor, sequence (O43614 whole entry): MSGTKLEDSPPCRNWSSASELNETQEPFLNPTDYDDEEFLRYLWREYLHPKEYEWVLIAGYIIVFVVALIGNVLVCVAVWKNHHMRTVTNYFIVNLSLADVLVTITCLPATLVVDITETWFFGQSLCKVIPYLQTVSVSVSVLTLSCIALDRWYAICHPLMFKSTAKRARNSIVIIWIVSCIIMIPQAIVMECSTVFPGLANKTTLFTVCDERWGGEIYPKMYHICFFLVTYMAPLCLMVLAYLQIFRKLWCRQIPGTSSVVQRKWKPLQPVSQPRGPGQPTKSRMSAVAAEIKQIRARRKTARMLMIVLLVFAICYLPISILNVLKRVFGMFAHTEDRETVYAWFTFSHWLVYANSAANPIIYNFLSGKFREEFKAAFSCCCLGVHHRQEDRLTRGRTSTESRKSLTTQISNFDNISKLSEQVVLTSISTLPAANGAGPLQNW

| Compound | IC50 (human orexin-2 receptor) [nM] | IC50 (hOX1R) [nM] |
| --- | --- | --- |
| COC(=O)c1c(OC)ccnc1O[C@@H]1CC[C@@H](C)N(C(=O)c2ccccc2-n2nccn2)C1 [Example 1, Methyl 4-methoxy-2-{[(3R,6R)-6-methyl-1-{[2-(2H-1,2,3-triazol-2-yl)phenyl]carbonyl}piperidin-3-yl]oxy}pyridine-3-carboxylate] | 33 | 1340 |
| COC(=O)c1c(OC)ccnc1O[C@@H]1CC[C@@H](C)N(C(=O)c2cccc(F)c2-n2nccn2)C1 [Example 2, Methyl 2-{[(3R,6R)-1-{[3-fluoro-2-(2H-1,2,3-triazol-2-yl)phenyl]carbonyl}-6-methylpiperidin-3-yl]oxy}-4-methoxypyridine-3-carboxylate] | 37 | 2900 |
| COC(=O)c1c(OC)ccnc1O[C@@H]1CC[C@@H](C)N(C(=O)c2ccc(Cl)cc2-n2nccn2)C1 [Example 3] | 33.6 | 1420 |
| COC(=O)c1c(OC)ccnc1O[C@@H]1CC[C@@H](C)N(C(=O)c2ccc(F)cc2-n2nccn2)C1 [Example 4, methyl 2-{[(3R,6R)-1-{[4-fluoro-2-(2H-1,2,3-triazol-2-yl)phenyl]carbonyl}-6-methylpiperidin-3-yl]oxy}-4-methoxypyridine-3-carboxylate] | 764 | 3200 |
| COC(=O)c1c(OC)ccnc1O[C@@H]1CC[C@@H](C)N(C(=O)c2ccc(F)cc2-c2nc(C)no2)C1 [Example 5, methyl 2-{[(3R,6R)-1-{[4-fluoro-2-(3-methyl-1,2,4-oxadiazol-5-yl)phenyl]carbonyl}-6-methylpiperidin-3-yl]oxy}-4-methoxypyridine-3-carboxylate] | 52 | 3100 |
| COC(=O)c1c(OC)ccnc1O[C@@H]1CC[C@@H](C)N(C(=O)c2c(F)cccc2-n2nccn2)C1 [Example 6, methyl 2-{[(3R,6R)-1-{[2-fluoro-6-(2H-1,2,3-triazol-2-yl)phenyl]carbonyl}-6-methylpiperidin-3-yl]oxy}-4-methoxypyridine-3-carboxylate] | 82.9 | 2310 |
| COC(=O)c1c(OC)ccnc1O[C@@H]1CC[C@@H](C)N(C(=O)c2cc(F)ccc2-n2nccn2)C1 [Example 7, methyl 2-{[(3R,6R)-1-{[5-fluoro-2-(2H-1,2,3-triazol-2-yl)phenyl]carbonyl}-6-methylpiperidin-3-yl]oxy}-4-methoxypyridine-3-carboxylate] | 27.6 | 1460 |
| COC(=O)c1c(OC)ccnc1O[C@@H]1CC[C@@H](C)N(C(=O)c2c(F)cccc2-c2noc(C)n2)C1 [Example 8, methyl 2-{[(3R,6R)-1-{[2-fluoro-6-(5-methyl-1,2,4-oxadiazol-3-yl)phenyl]carbonyl}-6-methylpiperidin-3-yl]oxy}-4-methoxypyridine-3-carboxylate] | 71.1 | 10000 |
| COC(=O)c1c(OC)ccnc1O[C@@H]1CC[C@@H](C)N(C(=O)c2cc(F)ccc2-c2noc(C)n2)C1 [Example 9] | 36.7 | 1500 |
| COC(=O)c1c(OC)ccnc1O[C@@H]1CC[C@@H](C)N(C(=O)c2ccc(F)cc2-c2noc(C)n2)C1 [Example 10, methyl 2-{[(3R,6R)-1-{[4-fluoro-2-(5-methyl-1,2,4-oxadiazol-3-yl)phenyl]carbonyl}-6-methylpiperidin-3-yl]oxy}-4-methoxypyridine-3-carboxylate] | 58.7 | 10000 |
| COC(=O)c1c(OC)ccnc1O[C@@H]1CC[C@@H](C)N(C(=O)c2cccc(F)c2-c2noc(C)n2)C1 [Example 11, methyl 2-{[(3R,6R)-1-{[3-fluoro-2-(5-methyl-1,2,4-oxadiazol-3-yl)phenyl]carbonyl}-6-methylpiperidin-3-yl]oxy}-4-methoxypyridine-3-carboxylate] | 31.8 | 2270 |
| COC(=O)c1c(OC)ccnc1O[C@@H]1CC[C@@H](C)N(C(=O)c2c(F)cccc2-c2nc(C)no2)C1 [Example 12, methyl 2-{[(3R,6R)-1-{[2-fluoro-6-(3-methyl-1,2,4-oxadiazol-5-yl)phenyl]carbonyl}-6-methylpiperidin-3-yl]oxy}-4-methoxypyridine-3-carboxylate] | – | 4470 |
| COC(=O)c1c(OC)ccnc1O[C@@H]1CC[C@@H](C)N(C(=O)c2cc(F)ccc2-c2nc(C)no2)C1 [Example 13, methyl 2-{[(3R,6R)-1-{[5-fluoro-2-(3-methyl-1,2,4-oxadiazol-5-yl)phenyl]carbonyl}-6-methylpiperidin-3-yl]oxy}-4-methoxypyridine-3-carboxylate] | 34.6 | 1160 |
| COC(=O)c1c(OC)ccnc1O[C@@H]1CC[C@@H](C)N(C(=O)c2cccc(C)c2-n2nccn2)C1 [Example 14, methyl 4-methoxy-2-{[(3R,6R)-6-methyl-1-{[3-methyl-2-(2H-1,2,3-triazol-2-yl)phenyl]carbonyl}piperidin-3-yl]oxy}pyridine-3-carboxylate] | 37.9 | 777 |
| COC(=O)c1c(OC)ccnc1O[C@@H]1CC[C@@H](C)N(C(=O)c2ccc(OC)cc2-n2nccn2)C1 [Example 15, methyl 4-methoxy-2-{[(3R,6R)-1-{[4-methoxy-2-(2H-1,2,3-triazol-2-yl)phenyl]carbonyl}-6-methylpiperidin-3-yl]oxy}pyridine-3-carboxylate] | 51 | 10000 |
| COC(=O)c1c(OC)ccnc1O[C@@H]1CC[C@@H](C)N(C(=O)c2ccc(OC)nc2-n2nccn2)C1 [Example 17, methyl 4-methoxy-2-{[(3R,6R)-1-{[6-methoxy-2-(2H-1,2,3-triazol-2-yl)pyridin-3-yl]carbonyl}-6-methylpiperidin-3-yl]oxy}pyridine-3-carboxylate] | 52 | 10000 |
| COC(=O)c1c(OC)ccnc1O[C@@H]1CC[C@@H](C)N(C(=O)c2cccc(F)c2-c2nc(C)no2)C1 [Example 18, methyl 2-{[(3R,6R)-1-{[3-fluoro-2-(3-methyl-1,2,4-oxadiazol-5-yl)phenyl]carbonyl}-6-methylpiperidin-3-yl]oxy}-4-methoxypyridine-3-carboxylate] | 39.5 | 932 |
| COC(=O)c1c(OC)ccnc1O[C@@H]1CC[C@@H](C)N(C(=O)c2ccccc2-c2ncccn2)C1 [Example 19] | 114 | 1870 |
| COC(=O)c1c(OC)ccnc1O[C@@H]1CC[C@@H](C)N(C(=O)c2ccc(F)cc2-c2ncccn2)C1 [Example 21, methyl 2-({(3R,6R)-1-[(4-fluoro-2-pyrimidin-2-ylphenyl)carbonyl]-6-methylpiperidin-3-yl}oxy)-4-methoxypyridine-3-carboxylate] | 71.2 | 1460 |
| COC(=O)c1c(OC)ccnc1O[C@@H]1CC[C@@H](C)N(C(=O)c2cccc(F)c2-c2ncccn2)C1 [Example 22, methyl 2-({(3R,6R)-1-[(3-fluoro-2-pyrimidin-2-ylphenyl)carbonyl]-6-methylpiperidin-3-yl}oxy)-4-methoxypyridine-3-carboxylate] | 117 | 3780 |
| COC(=O)c1c(OC)ccnc1O[C@@H]1CC[C@@H](C)N(C(=O)c2ccccc2-n2ncnn2)C1 [Example 23, Methyl 4-methoxy-2-{[(3R,6R)-6-methyl-1-{[2-(2H-tetrazol-2-yl)phenyl]carbonyl}piperidin-3-yl]oxy}pyridine-3-carboxylate] | 27.7 | 2140 |
| CCOC(=O)c1c(OC)ccnc1O[C@@H]1CC[C@@H](C)N(C(=O)c2ccccc2-n2nccn2)C1 [Example 25, ethyl 4-methoxy-2-{[(3R,6R)-6-methyl-1-{[2-(2H-1,2,3-triazol-2-yl)phenyl]carbonyl}piperidin-3-yl]oxy}pyridine-3-carboxylate] | 19.3 | 814 |
| CCOC(=O)c1c(OC)ccnc1O[C@@H]1CC[C@@H](C)N(C(=O)c2cccc(F)c2-n2nccn2)C1 [Example 26] | 39.6 | 2790 |
| CCOc1ccnc(O[C@@H]2CC[C@@H](C)N(C(=O)c3ccccc3-n3nccn3)C2)c1C(=O)OC [Example 27, Methyl 4-ethoxy-2-{[(3R,6R)-6-methyl-1-{[2-(2H-1,2,3-triazol-2-yl)phenyl]carbonyl}piperidin-3-yl]oxy}pyridine-3-carboxylate] | 167 | 7000 |
| CCOC(=O)c1c(OCC)ccnc1O[C@@H]1CC[C@@H](C)N(C(=O)c2ccccc2-n2ncnn2)C1 [Example 28, Ethyl 4-ethoxy-2-{[(3R,6R)-6-methyl-1-{[2-(2H-tetrazol-2-yl)phenyl]carbonyl}piperidin-3-yl]oxy}pyridine-3-carboxylate] | 18 | 4130 |

From US9975876B2, “2-pyridyloxy-3-ester-4-ether orexin receptor antagonists” (MERCK SHARP & DOHME CORP., priority 2013, dated 2018)
